Data set [1] is described as follows: Direct compression tabletting of APAP formula: compression profile (tablet hardness vs. press pressure setting). Format: physicochemical. Conditions: 64% APAP, 34.75% binder. How it is done: (§1) Direct compression tabletting in a laboratory scale tablet press (Stokes, Model B-2, 16 station rotary tablet press with 3/8'' standard concave punches, obtained from Stokes Co., Warminster, PA) was used to prepare tablets from the following formula: […]
All ingredients except the binder were dry blended, screened through a 10 mesh sieve and blended with the binder.
(§2) Tablets weighing from 360-460 mg were formed in the tablet press at pressure settings from A (low) to I (high) by adjusting the weight setting for each pressure setting. Compressibility is expressed as a profile obtained by increasing the pressure setting until the accompanying increases in the tablet hardness measurements leveled off. Tablet hardness was determined on a hydraulic tablet hardness tester (Delamar, Model PT 1000, obtained from VanKel Industries, Edison, New Jersey) in units of Kg/cm².

Data set [2] can be described thus: Visual observation of direct compression APAP tablets (structural integrity, capping, splitting, surface). Format: physicochemical. Conditions: direct compression APAP formula. Here is the method: as §1, §2
The starch debranching and tabletting methods of Example 1 were employed to make direct compression tablets according to the formula of Example 1.

Consider `CC(=O)Nc1ccc(O)cc1` [100% APAP, Acetaminophen], for which the “Tablet Hardness” value in data set [1] (machine position A (low pressure setting)), in data set [1] (machine position B), in data set [1] (machine position C), in data set [1] (machine position D), in data set [1] (machine position E) and in data set [1] (machine position F) was 0 Kg/cm² throughout. Further, the “Tablet Hardness” value in data set [1] (machine position G), in data set [1] (machine position H) and in data set [1] (machine position I (high pressure setting)) was 0 Kg/cm² each time. The “compressibility and structural integrity of tablets (visual observation)” value in data set [2] is “a. Not compressible”; in data set [2] (listed as acetaminophen (APAP)), “does not compress to form a tablet”.

Source of the values: patent EP0499648A1, “Enzymatically debranched starches as tablet excipients” (National Starch and Chemical Investment Holding Corporation, priority 1991, dated 1992).
